Legend:
Assay in all cases: two-electrode voltage clamp, Xenopus oocytes
Dm-DopC1 [1] = test system: T1, Dm-DopC1; assay type: cell-based, Daphnia magna; settings: antagonist against 50 µM dopamine; ND96 pH 7.5, -60 mV; 4-parameter fit, bottom = 0
T1 construct: full-length homomeric pentamer expressed from cRNA in Xenopus laevis oocytes; predicted signal peptide residues 1-26

Dm-DopC1 [2] = target: T2, Dm-DopC1 (Daphnia magna, UniProt Z9WC39ES65, D188N); assay type: cell-based
T2 construct: full-length homomeric pentamer expressed from cRNA in Xenopus laevis oocytes; predicted signal peptide residues 1-26

Dm-DopC1 [3] = target: T3, Dm-DopC1 (Daphnia magna, UniProt Z9WC39ES65, N92T); assay type: cell-based
T3 construct: full-length homomeric pentamer expressed from cRNA in Xenopus laevis oocytes; predicted signal peptide residues 1-26
Source text: two-electrode voltage clamp, Xenopus oocytes on Dm-DopC1

T3 sequence (Z9WC39ES65 27-520 N92T limits assumed): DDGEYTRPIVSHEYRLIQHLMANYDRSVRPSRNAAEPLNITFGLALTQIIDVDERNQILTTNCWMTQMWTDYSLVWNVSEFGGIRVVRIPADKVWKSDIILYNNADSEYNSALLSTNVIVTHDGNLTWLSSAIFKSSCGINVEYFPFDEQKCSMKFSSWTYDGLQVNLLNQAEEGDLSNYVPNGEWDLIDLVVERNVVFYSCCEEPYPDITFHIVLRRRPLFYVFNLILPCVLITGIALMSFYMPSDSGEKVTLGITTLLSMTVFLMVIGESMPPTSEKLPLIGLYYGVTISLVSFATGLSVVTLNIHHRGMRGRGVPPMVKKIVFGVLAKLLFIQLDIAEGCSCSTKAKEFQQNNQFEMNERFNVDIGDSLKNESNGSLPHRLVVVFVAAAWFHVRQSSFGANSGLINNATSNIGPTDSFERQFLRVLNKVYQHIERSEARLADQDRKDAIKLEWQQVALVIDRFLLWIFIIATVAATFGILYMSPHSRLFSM
T2 sequence (Z9WC39ES65 27-520 D188N limits assumed): as the sequence (Z9WC39ES65 27-520 N92T limits assumed) above, with T66N, D162N counted along it

CN1CCc2cccc3c2[C@H]1Cc1ccc(O)c(O)c1-3 [apomorphine]
IC50 (Dm-DopC1 [1]): 6 µM

NCCc1ccc(O)c(O)c1 [dopamine]
EC50 (Dm-DopC1 [2]): > 9000 µM

CN1CCC[C@H]1c1cccnc1 [nicotine]
IC50 (Dm-DopC1 [1]): 109 µM

NC[C@H](O)c1ccc(O)c(O)c1 [norepinephrine]
EC50 (Dm-DopC1 [3]): 440 ± 114 µM

COc1cc2c3cc1Oc1cc(ccc1O)C[C@@H]1c4c(cc(OC)c(O)c4Oc4ccc(cc4)C[C@@H]3N(C)CC2)CC[N+]1(C)C [tubocurarine]
IC50 (Dm-DopC1 [1]): 0.9 µM
